Here are results for 21 molecules from patent US7718645B2, “Substituted bicyclolactam compounds” (Pfizer Inc., priority 2007, dated 2010).

In general, IC50 refers to the midpoint of a concentration-inhibition curve.

The assay has as its target T1, Human full-length diacylglycerol:acylCoA acyltransferase 1 (DGAT-1) (Homo sapiens, UniProt O75907).
T1 construct: Human full-length diacylglycerol:acylCoA acyltransferase 1 (DGAT-1) was expressed in Sf9 insect cells; made in house; host or cells: Sf9 insect cells (baculovirus)
T1 sequence (O75907 1-488): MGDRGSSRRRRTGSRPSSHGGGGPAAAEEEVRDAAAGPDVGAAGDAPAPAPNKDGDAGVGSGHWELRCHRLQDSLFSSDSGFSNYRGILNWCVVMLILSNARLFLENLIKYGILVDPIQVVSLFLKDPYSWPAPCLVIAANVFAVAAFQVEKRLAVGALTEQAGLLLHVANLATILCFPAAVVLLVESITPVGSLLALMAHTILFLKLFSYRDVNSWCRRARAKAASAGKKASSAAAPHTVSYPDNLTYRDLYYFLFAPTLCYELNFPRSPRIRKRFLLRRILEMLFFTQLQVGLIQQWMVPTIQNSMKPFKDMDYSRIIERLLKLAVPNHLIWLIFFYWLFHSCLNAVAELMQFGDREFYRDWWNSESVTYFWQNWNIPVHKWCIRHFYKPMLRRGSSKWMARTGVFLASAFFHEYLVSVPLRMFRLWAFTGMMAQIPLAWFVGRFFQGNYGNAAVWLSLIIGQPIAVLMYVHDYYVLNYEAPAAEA
Put plainly: In vitro assay for DGAT-1 inhibition ([14C]decanoylCoA, Sf9 membrane fraction). It is filed as biochemical. The protocol:
Human full-length diacylglycerol:acylCoA acyltransferase 1 (DGAT-1) was expressed in Sf9 insect cells which are then lysed and a crude membrane fraction (105,000×g pellet) was prepared.
The cells were cultured as follows. Sf9 cells (20 L) were infected with 4 mL of DGAT1 Baculovirus Infected Insect Cells (BIIC) for 72 hours in a Wave Bioreactor System 20/50P (Wave Biotec/GE Healthcare).
Crude DGAT-1 microsomes were prepared as follows. Cell pellets were washed once with ice-cold Dulbecco's phosphate-buffered saline. Cells were collected in tabletop centrifuge (Beckman GS-6KR), 15 minutes, 2000×g, 4° C. Twenty (20) mL of ice-cold Microsome Buffer (MB) was added per 5 g of cell pellet. The suspension was passed through a microfluidizer 3 times (18K psi). The lysate was transferred to centrifuge tubes and centrifuged for 20 minutes at 5000×g (Beckman-Coulter, Inc. Allegra® 64R High-Speed Refrigerated Benchtop Centrifuge, F0650 rotor) at 4° C. The supernatant was transferred to Ultracentrifuge tubes and centrifuged at […] for 1 hr in a Beckman Ti-45 rotor, 4° C. The supernatant fluid was discarded. The pellet was resuspended in 70 mL of MB by sonication. The microsome concentration was determined using Bio-Rad Protein DC Protein Assay. The microsomes were filter sterilized with a 0.22 μm filter. The samples were portioned, flash frozen and stored at −80° C.
Inhibitors in DMSO were pre-incubated with membranes before initiating the DGAT-1 reaction by the addition of decanoylCoA. […] The inhibitors were present at a range of eight concentrations to generate an apparent IC50 for each compound. […] Specifically, the eight concentrations used were 10 μM, 3 μM, 1 μM, 300 nM, 100 nM, 30 nM, 10 nM and 3 nM.
The reactions were allowed to proceed for 1.5 h at room temperature and then terminated by the addition of 10 μl of HCl (0.5 M). Reaction mixtures were neutralized by the addition of 15 μl of tris(hydroxy-methyl)aminomethane (1M, pH 8.0) and then mixed by trituration with 37.5 μl of Microscint™-E (Perkin Elmer).
Where this DGAT-1 inhibition assay was performed on a compound more than once, an inhibition range is also provided for that compound.

Setting [1] is: apparent IC50, eight inhibitor concentrations 10 μM to 3 nM, read-out: IC50.
The mark [2] stands for this setting: inhibition range where the assay was performed on a compound more than once, read-out: IC50 range.
Where [3] appears, read: Examples 17-23 table, range of repeated assays, read-out: DGAT-1 IC50 Range.
Setting [4] is: Examples 17-23 table, read-out: DGAT-1 IC50.
Where [5] appears, read: Examples 24-25 table, range of repeated assays, read-out: DGAT-1 IC50 Range.
[6] abbreviates: Examples 24-25 table, read-out: DGAT-1 IC50.

Read-outs that look alike come from different tables or passages of the source. A value given as a limit tells only on which side of the number the result lay.

Turning to `COC(=O)CC1CC=C(c2ccc(N3CCOc4ncnc(N)c4C3=O)cc2)CC1` (racemic) [Example 52, Methyl(+)-{4-[4-(4-Amino-5-oxo-7,8-dihydropyrimido[5,4-f][1,4]oxazepin-6(5H)-yl)phenyl]cyclohex-3-en-1-yl}acetate], the IC50 under setting [1] turned out to be 84.3 nM.

Regarding `Nc1ncnc2c1C(=O)N(c1ccc([C@@H]3CC[C@@H]4[C@@H](CC(=O)O)CC[C@@H]43)cc1)CCO2` (racemic) [Example 55, ±{(1R,3aS,4R,6aR)4-[4-(4-Amino-5-oxo-7,8-dihydropyrimido[5,4-f][1,4]oxazepin-6(5H)-yl)phenyl]octahydropentalen-1-yl}acetic Acid], the half-maximal inhibitory concentration (IC50) reads like this: under setting [1], < 10 nM; under setting [2], 3 to 27.2 nM. Taken in the same sequence, the figures for `Nc1ncnc2c1C(=O)N(c1ccc([C@H]3C[C@H]4C[C@@H]3C3C(C(=O)O)C34)cc1)CCO2` (mixture of isomers) [Example 57, (±)-(1R,5R,6S)-6-[4-(4-Amino-5-oxo-7,8-dihydropyrimido[5,4-f][1,4]oxazepin-6(5H)-yl)phenyl]tricyclo[3.2.1.0˜2.4˜]octane-3-carboxylic Acid] were 34.7 nM and 26.7 to 58.6 nM. The corresponding values for `Nc1ncnc2c1C(=O)N(c1ccc(C3=CCC(CC(=O)O)CC3)cc1)CCO2` (single isomer, unassigned; (+)) [Example 53, (+)-{4-[4-(4-Amino-5-oxo-7,8-dihydropyrimido[5,4-f][1,4]oxazepin-6(5H)-yl)phenyl]cyclohex-3-en-1-yl}acetic Acid] are 36.4 nM and 33.8 to 39.3 nM. For the molecule `C[C@H]1COc2ncnc(N)c2C(=O)N1c1ccc([C@H]2CC[C@H](CC(=O)O)CC2)cc1` [Example 5], the concentration for half-maximal inhibition (IC50) under setting [1] came to 33.9 nM. With `Nc1ncnc2c1C(=O)N(c1ccc(C3CCC(CC(=O)O)CC3)cc1F)CCO2` (centres unmarked) [Example 6, 2-(4-(4-(4-amino-5-oxo-7,8-dihydropyrimido[5,4-f][1,4]oxazepin-6(5H)-yl)-3-fluorophenyl)cyclohexyl)acetic Acid], the IC50 was 55.5 nM under setting [1] and 29.1 to 89.6 nM under setting [2].

As to `CCOC(=O)C[C@H]1CC[C@H](c2ccc(N3CC(C)(C)Oc4ncnc(N)c4C3=O)cc2)CC1` [Example 7, ethyl {trans-4-[4-(4-amino-8,8-dimethyl-5-oxo-7,8-dihydropyrimido[5,4-f][1,4]oxazepin-6(5H)-yl)phenyl]cyclohexyl}acetate], under setting [1], the IC50 is 183 nM. The same measure, in the same setting: next, `COC(=O)C[C@H]1CC[C@H](c2ccc(N3CCOc4nc(C)nc(N)c4C3=O)cc2)CC1` [Example 9, methyl {trans-4-[4-(4-amino-2-methyl-5-oxo-7,8-dihydropyrimido[5,4-f][1,4]oxazepin-6(5H)-yl)phenyl]cyclohexyl}acetate]: 239 nM.

On to `CCC1CN(c2ccc(C3CCC(CC(=O)O)CC3)cc2)C(=O)c2c(N)ncnc2O1` (centres unmarked) [Example 13, {4-[4-(4-Amino-8-ethyl-5-oxo-7,8-dihydro-5H-9-oxa-1,3,6-triaza-benzocyclohepten-6-yl)-phenyl]-cyclohexyl}-acetic acid], for which the IC50 is 1330 nM under setting [1] and 1070 to 1660 nM under setting [2]. The corresponding values for `CC1COc2ncnc(N)c2C(=O)N1c1ccc(C2CCC(CC(=O)O)CC2)cc1` (centres unmarked) [Example 15, {4-[4-(4-Amino-7-methyl-5-oxo-7,8-dihydro-5H-9-oxa-1,3,6-triaza-benzocyclohepten-6-yl)-phenyl]-cyclohexyl}-acetic acid] are 27.3 nM and 13.6 to 77.9 nM.

For `C[C@@H]1CN(c2ccc(C3CCC(CC(=O)O)CC3)c(F)c2)C(=O)c2c(N)ncnc2O1` (stereo partly drawn) [Example 17, (R)-2-(4-(4-(4-amino-8-methyl-5-oxo-7,8-dihydropyrimido[5,4-f][1,4]oxazepin-6(5H)-yl)-2-fluorophenyl)cyclohexyl)acetic acid], the IC50 is 3 to 15.5 nM under setting [3] and < 6.21 nM under setting [4]. Taken in the same sequence, the figures for `Nc1ncnc2c1C(=O)N(c1ccc(C3CCC(CC(=O)O)CC3)c(Cl)c1)CCO2` (centres unmarked) [Example 18, 2-(4-(4-(4-amino-5-oxo-7,8-dihydropyrimido[5,4-f][1,4]oxazepin-6(5H)-yl)-2-chlorophenyl)cyclohexyl)acetic acid] were 4.4 to 6.9 nM and 5.82 nM.

Turning to `Nc1ncnc2c1C(=O)N(c1ccc(C3CCC(CC(=O)O)CC3)c(F)c1)CCO2` (centres unmarked) [Example 19, 2-(4-(4-(4-amino-5-oxo-7,8-dihydropyrimido[5,4-f][1,4]oxazepin-6(5H)-yl)-2-fluorophenyl)cyclohexyl)acetic acid], the IC50 is, setting by setting: under setting [3], 3 to 15.5 nM; under setting [4], < 8.26 nM.

As to `Cc1cc(N2CCOc3ncnc(N)c3C2=O)ccc1C1CCC(CC(=O)O)CC1` (centres unmarked) [Example 20, 2-(4-(4-(4-amino-5-oxo-7,8-dihydropyrimido[5,4-f][1,4]oxazepin-6(5H)-yl)-2-methylphenyl)cyclohexyl)acetic acid], the IC50 is 8.6 to 17.2 nM under setting [3] and 13 nM under setting [4].

With `Cc1cc(N2C[C@@H](C)Oc3ncnc(N)c3C2=O)ccc1C1CCC(CC(=O)O)CC1` (stereo partly drawn) [Example 21, (R)-2-(4-(4-(4-amino-8-methyl-5-oxo-7,8-dihydropyrimido[5,4-f][1,4]oxazepin-6(5H)-yl)-2-methylphenyl)cyclohexyl)acetic acid], the IC50 is 6.1 to 37.4 nM under setting [3] and 14.8 nM under setting [4]. Taken in the same sequence, the figures for `C[C@@H]1CN(c2ccc(C3CCC(CC(=O)O)CC3)cc2F)C(=O)c2c(N)ncnc2O1` (stereo partly drawn) [Example 22, (R)-2-(4-(4-(4-amino-8-methyl-5-oxo-7,8-dihydropyrimido[5,4-f][1,4]oxazepin-6(5H)-yl)-3-fluorophenyl)cyclohexyl)acetic acid] were 27.9 to 34.5 nM and 30 nM.

Consider `Cc1cc(C2CCC(CC(=O)O)CC2)ccc1N1CCOc2ncnc(N)c2C1=O` (centres unmarked) [Example 23, 2-(4-(4-(4-amino-5-oxo-7,8-dihydropyrimido[5,4-f][1,4]-oxazepin-6(5H)-yl)-3-methylphenyl)cyclohexyl)acetic acid], for which the IC50 was 643 to 2270 nM under setting [3] and 1410 nM under setting [4]. As to `C[C@@H]1CN(c2ccc([C@H]3CC[C@@H](CC(=O)O)CC3)c(F)c2)C(=O)c2c(N)ncnc2O1` [Example 24, (cis-4-{4-[(8R)-4-amino-8-methyl-5-oxo-7,8-dihydropyrimido[5,4-f][1,4]oxazepin-6(5H)-yl]-2-fluorophenyl}cyclohexyl)acetic acid], the IC50 by setting is: under setting [5], 1.7 to 13.2 nM; under setting [6], 4.6 nM.

On to `C[C@@H]1CN(c2ccc([C@H]3CC[C@H](CC(=O)O)CC3)c(F)c2)C(=O)c2c(N)ncnc2O1` [Example 25, (trans-4-{4-[(8R)-4-amino-8-methyl-5-oxo-7,8-dihydropyrimido[5,4-f][1,4]oxazepin-6(5H)-yl]-2-fluorophenyl}cyclohexyl)acetic acid], for which the IC50 under setting [5] fell in the range of 10 to 17 nM and the IC50 under setting [6] amounted to 12.3 nM. `CS(=O)(=O)NC(=O)C[C@H]1CC[C@H](c2ccc(N3CCOc4ncnc(N)c4C3=O)cc2)CC1` [Example 26, 2-{Trans-4-[4-(4-amino-5-oxo-7,8-dihydropyrimido[5,4-f][1,4]oxazepin-6(5H)-yl)phenyl]cyclohexyl}-N-(methylsulfonyl)acetamide]: the IC50 is, setting by setting: under setting [1], 44.5 nM; under setting [2], 34.2 to 75 nM. Taken in the same sequence, the figures for `C[C@@H]1CN(c2ccc([C@H]3CC[C@H](CC(N)=O)CC3)cc2)C(=O)c2c(N)ncnc2O1` [Example 27, (Trans-4-{4-[(8R)-4-amino-8-methyl-5-oxo-7,8-dihydropyrimido[5,4-f][1,4]oxazepin-6(5H)-yl]phenyl}cyclohexyl)acetamide] were 52.2 nM and 11.4 to 68.1 nM.
